Results from patent EP4763837A1, “PHOTOCHROMIC COMPOUND, CURABLE COMPOSITION, OPTICAL ARTICLE, LENS, AND EYEGLASSES” (TOKUYAMA CORPORATION, priority 2023, dated 2025).
Several values for one entry are separate records, joined by “and”; a condition that tells them apart may be missing. Equal entries are not always repeated.

Legend:
[1] = Solubility of photochromic compound in polymerizable compounds; assay type: physicochemical; set-up: key: 1: No haze is seen when checked under transmission of light, and the sample is completely dissolved.; 2: A very thin haze is seen to the extent that it can be seen under transmission of light.; 3: A thin haze that can be seen under transmission of light is seen.; 4: A haze can be seen even without transmission of light; conditions: 35 µmol/g in radical polymerizable compound composition of Example 21, 65 to 70°C; for Dissolution for 15 min / Dissolution for 30 min / Dissolution for 45 min: stirring and ultrasonic irradiation; for Dissolution for 1 hour: head reads 60 min in Tables 8 to 14
Description: The photochromic compounds according to Examples and Comparative examples shown in Table 5 were evaluated for solubility in polymerizable compounds.
Specifically, a sample was prepared by adding each of the photochromic compounds to the composition, which consisted of a radical polymerizable compound, among the curable compositions used in Example 21.
Note that, this test was performed using "YOKAI-KUN USS-1" manufactured by NIHONSEIKI KAISHA LTD. under the following conditions: • Dissolution temperature: 65 to 70°C • Stirring condition: Stirring dial of 5. Ultrasonic irradiation condition: Irradiation interval of 3 sec.
Dissolution was checked every 15 minutes up to 1 hour later, the sample was visually checked by transmitting light through the sample, and a degree of dissolution was evaluated according to the following four evaluation criteria.
• 1: No haze is seen when checked under transmission of light, and the sample is completely dissolved. • 2: A very thin haze is seen to the extent that it can be seen under transmission of light. • 3: A thin haze that can be seen under transmission of light is seen. • 4: A haze can be seen even without transmission of light.
A shorter time required for the evaluation result to be 1 means higher solubility.

[2] = Photochromic property of photochromic laminate made by coating method; assay type: physicochemical; conditions: for Residual ratio / Color developing density at 23°C: laminate by coating method; for Residual ratio: A96/A0 x 100 after 96 hours accelerated degradation, xenon weather meter X25; for Color developing density at 23°C: absorbance difference after 240 seconds irradiation at the maximum absorption wavelength of the same line
Text: First, the photochromic compound obtained in Example 1, a photoinitiator, and a polymerizable compound were mixed to obtain a curable composition.
The polymerizable compound was a combination of the following radical polymerizable monomers:
Polyethylene glycol dimethacrylate (average molecular weight: 736): 42 parts by mass • Polyethylene glycol dimethacrylate (average molecular weight: 536): 12 parts by mass • Trimethylolpropane methacrylate: 38 parts by mass γ-Methacryloyloxypropyltrimethoxysilane: 2 parts by mass Glycidyl methacrylate: 1 part by mass.
Note that, in the curable composition, the photochromic compound was added in an amount of 0.25 mmol taking a total amount of the radical polymerizable monomers as 100 g.
Phenylbis(2,4,6-trimethylbenzoyl)phosphine oxide (photoinitiator: Omnirad 819): 0.3 parts by mass Ethylene bis(oxyethylene) bis[3-(5-tert-butyl-4-hydroxy-m-tolyl) propionate] (stabilizer, Irganox 245): 1 part by mass Bis(1,2,2,6,6-pentamethyl-4-piperidyl)sebacate: 3 parts by mass Leveling agent (L-7001) manufactured by DuPont Toray Specialty Materials K.K.: 0.1 parts by mass.
Using this curable composition, a photochromic laminate was obtained by a lamination method including polymerization as follows.
First, a thiourethane plastic lens with a center thickness of 2 mm and a refractive index of 1.60 was prepared as an optical substrate. Note that, the thiourethane plastic lens had been alkaline-etched in a 10% sodium hydroxide aqueous solution at 50°C for 5 minutes in advance, and then thoroughly washed with distilled water.
A spin coater (1H-DX2, manufactured by MIKASA CO., LTD) was used to coat a surface of the above-mentioned plastic lens with a moisture-curing primer (product name: TR-SC-P, manufactured by Tokuyama Corporation) at a rotation speed of 70 rpm for 15 seconds, followed by 1000 rpm for 10 seconds. Then, about 2 g of the photochromic curable composition obtained above was spin-coated at a rotation speed of 60 rpm for 40 seconds, followed by 600 rpm for 10 to 20 seconds so as to achieve a photochromic coating layer with a thickness of 40 µm.
The lens of which surface had been coated with the photochromic curable composition (photochromic coating layer) was irradiated with light for 90 seconds in a nitrogen gas atmosphere using a metal halide lamp with an output of 200 mW/cm^2 to cure the coating. The resultant was then further heated at 110°C for 1 hour to produce a photochromic laminate with a photochromic layer.
Photochromic laminates were produced using the photochromic compounds obtained in Examples 2 to 20 in the same manner as in Example 21.
Photochromic laminates were obtained using photochromic compounds represented by Formulae (A) to (D) below in the same manner as in Example 21. [drawing 89] [drawing 90] [drawing 91] [drawing 92] [drawing 93]
The resulting photochromic laminates were evaluated by the below-mentioned methods. • (1) Photochromic property • [1] Maximum absorption wavelength (λmax): This is the maximum absorption wavelength after color development determined by a spectrophotometer manufactured by Otsuka Electronics Co., Ltd. (instantaneous multichannel photo detector MCPD3000) and was used as an index of a color tone upon color development. • [2] Color developing density at 23°C (A23): This is a difference between an absorbance {ε(240)} after irradiation with light at 23°C for 240 seconds and an absorbance ε(0) when not irradiated with light at the maximum absorption wavelength and was used as an index of a color developing density. The higher this value is, the better a photochromic property is. • [3] Color fading half-life at 23°C [τ1/2 (sec).)]: This is a period of time taken by an absorbance at the maximum absorption wavelength of a sample to decrease to 1/2 of {ε(240)-ε(0)} when irradiation is stopped after irradiation with light at 23°C for 240 seconds, and was used as an index of a color fading rate. The shorter this period of time is, the faster the color fading rate is. • [4] […]

SMILES | Dissolution for 15 min [1] | Dissolution for 30 min [1] | Dissolution for 45 min [1] | Dissolution for 1 hour [1] | Residual ratio [2] | Color developing density at 23°C [2] | Color fading half-life at 23°C [2]
CCC(C)C1(CC)c2cc(OC)ccc2-c2c1c1c(c3cc(OC)ccc23)OC(c2ccc(OC)cc2)(c2ccc(N3CCOCC3)cc2)C=C1 (stereo not shown) [Formula (3-2)] | 3 | 1 | 1 | 1 |  |  | 
COc1ccc(C2(c3ccc(N(c4ccccc4)c4ccccc4)cc3)C=Cc3c4c(c5cc(-c6c(OC)cc(OC)cc6OC)c(OC)cc5c3O2)-c2ccccc2C4(C)C)cc1 (stereo not shown) [Formula (L), reference compound] | 4 | 3 | 2 | 1 |  |  | 
CCC1(OCCOCCO[Si](C)(C)CC[Si](O[Si](C)(C)C)(O[Si](C)(C)C)O[Si](C)(C)C)c2ccccc2-c2c1c1c(c3cc(OC)c(N4CCOCC4)cc23)OC(c2ccc(OC)cc2)(c2ccc(OC)cc2)C=C1 (stereo not shown) [Formula (C), reference compound] | 2 | 1 | 1 | 1 | 34% and 36% | 1.27 - and 0.70 - | 
CCCCC1(CC)c2ccccc2-c2c1c1c(c3cc(OC)c(-c4ccc(N(c5ccccc5)c5ccccc5)cc4)cc23)OC(c2ccc(N(C)c3ccccc3)cc2)(c2ccc(OCCC)c(F)c2)C=C1 (stereo not shown) [Formula (76-6)] |  |  |  |  | 68% |  | 1.17 min
CCCCCC1(CCCC)c2ccccc2-c2c1c1c(c3cc(OC)c(N4CCCc5ccccc54)cc23)OC(c2ccc(OC)cc2)(c2ccc(OCCC)cc2)C=C1 (stereo not shown) [Formula (16-1)] |  |  |  |  | 59% | 1.29 - | 
CCCC1(C)c2ccccc2-c2c1c1c(c3cc(OC)c(-c4c(OC)cc(OC)cc4OC)cc23)OC(c2ccc(OC)cc2)(c2ccc(N(c3ccccc3)c3ccccc3)cc2)C=C1 (stereo not shown) [Formula (89-1)] | 4 | 2 | 1 | 1 |  |  | 
CCCC1(CC)c2cc(Sc3c(C)cccc3C)ccc2-c2c1c1c(c3cc(OC)ccc23)OC(c2ccc(OC)cc2)(c2ccc(N(C)c3ccccc3)cc2)C=C1 (stereo not shown) [Formula (88-1)] |  |  |  |  | 68% |  | 0.717 min
COc1ccc(C2(c3ccc(N4CCOCC4)cc3)C=Cc3c4c(c5cc(Sc6c(C)cccc6C)c(OC)cc5c3O2)-c2ccc(OC)cc2C4(C)C)cc1 (stereo not shown) [Formula (K), reference compound] | 4 | 4 | 3 | 3 |  |  | 
CCCC1(CC)c2cc(C)ccc2-c2c1c1c(c3cc(OC)c(-c4ccc(N5CCOCC5)cc4)cc23)OC(c2ccc(C)cc2)(c2ccc(N(C)c3ccccc3)cc2)C=C1 (stereo not shown) [Formula (84-1)] |  |  |  |  | 62% |  | 2 min
COc1ccc(C2(c3ccc(OC)cc3)C=Cc3c4c(c5ccc(OC)cc5c3O2)-c2ccc(OC(F)(F)F)cc2C4(C)C)cc1 [Formula (H), reference compound] | 4 | 3 | 3 | 2 |  |  | 
COc1ccc(C2(c3ccc(N4CCOCC4)cc3)C=Cc3c4c(c5cc(-c6ccc(N7CCOCC7)cc6)c(OC)cc5c3O2)-c2ccc(C)cc2C4(C)C)cc1 (stereo not shown) [Formula (G), reference compound] | 4 | 3 | 3 | 2 |  |  | 
CCCCC1(CC)c2cc(N(C)c3ccccc3)ccc2-c2c1c1c(c3cc(OC)c(OC)cc23)OC(c2ccc(OC)cc2)(c2ccc(OCCC)cc2)C=C1 (stereo not shown) [Formula (82-1)] | 3 | 2 | 1 | 1 |  |  | 
CCCC1(CC)c2ccccc2-c2c1c1c(c3cc(OC)c(N(C)c4ccccc4)cc23)OC(c2ccc(OC)cc2)(c2ccc(N(c3ccccc3)c3ccccc3)cc2)C=C1 (stereo not shown) [Formula (83-2)] |  |  |  |  | 74% | 1.25 - | 1.53 min
CCC1(CC)c2ccccc2-c2c1c1c(c3cc(OC)c(N(C)c4ccccc4)cc23)OC(c2ccc(OC)cc2)(c2ccc(OC)cc2)C=C1 [Formula (F), reference compound] | 4 | 3 | 3 | 2 |  |  | 
CCCCCCC1(CCCC)c2cc(OC)ccc2-c2c1c1c(c3cc(OC)c(Sc4c(C)cccc4C)cc23)OC(c2ccc(OC)cc2)(c2ccc(N3CCOCC3)cc2)C=C1 (stereo not shown) [Formula (85-1)] | 3 | 2 | 1 | 1 |  |  | 
CCCOc1ccc(C2(c3ccc(OC)cc3)C=Cc3c4c(c5cc(C)c(OC)cc5c3O2)-c2ccc(N3CCOc5ccccc53)cc2C4(C)CC)cc1 (stereo not shown) [Formula (75-2)] |  |  |  |  | 64% |  | 2.33 min
CCCOc1ccc(C2(c3ccc(OC)cc3)C=Cc3c4c(c5cc(OC)c(OC)cc5c3O2)-c2ccc(N(C)c3ccccc3)cc2C4(C)C)cc1 (stereo not shown) [Formula (I), reference compound] | 4 | 4 | 3 | 3 |  |  | 
COc1ccc(C2(c3ccc(N4CCOCC4)cc3)C=Cc3c4c(c5ccc(OC)cc5c3O2)-c2ccc(OC)cc2C42CC(C)(C)CC(C)(C)C2)cc1 (stereo not shown) [Formula (E), reference compound] | 4 | 3 | 3 | 2 |  |  | 
CCC1(CC)CCC2(CC1)c1cc(OC)ccc1-c1c2c2c(c3cc(OC)c(Sc4c(C)cccc4C)cc13)OC(c1ccc(OC)cc1)(c1ccc(N3CCOCC3)cc1)C=C2 (stereo not shown) [Formula (J), reference compound] | 4 | 3 | 3 | 2 |  |  | 
CCCOc1ccc(C2(c3ccc(OC)cc3)C=Cc3c4c(c5cc(OC)c(OC)cc5c3O2)-c2ccc(Sc3cccc(C(F)(F)F)c3)cc2C4(CC)CCC)cc1 (stereo not shown) [Formula (72-3)] |  |  |  |  | 57% |  | 
CCCOc1ccc(C2(c3ccc(N(C)c4ccccc4)cc3)C=Cc3c4c(c5cc(-c6ccc(OC)cc6OC)c(OC)cc5c3O2)-c2ccccc2C4(C)CC)cc1F (stereo not shown) [Formula (86-1)] |  |  |  |  | 58% |  | 
CCCCC1(CC)c2ccccc2-c2c1c1c(c3cc(OC)c(-c4ccccc4N4CCOCC4)cc23)OC(c2ccc(OC)cc2)(c2ccc(OC)cc2)C=C1 (stereo not shown) [Formula (81-2)] |  |  |  |  |  |  | 1.67 min
